From publication PMC6274251, “Design, Synthesis and Biological Evaluation of Stilbene Derivatives as Novel Inhibitors of Protein Tyrosine Phosphatase 1B” (Molecules, 2016)
Entries after “also recorded” stand apart in the source; their conditions may differ. Read-outs that look alike come from different tables or passages of the source.

How the values were obtained:
[1] = target: T1, GST-PTP1B (Homo sapiens, UniProt P18031); assay: Colorimetric pNPP assay of inhibition against PTP1B; type: biochemical; conditions: for IC50: means ± SD of three replications, pNPP substrate, pH 6.5, 30 °C; for TCPTP/PTP1B, the ratio of IC50 of TCPTP and PTP1B: selectivity over TCPTP;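 on all read-outs here: colorimetric inhibition readout run in 96-well plates, with PTP1B and TCPTP both tested in the same assay format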
T1 sequence (P18031 1-435): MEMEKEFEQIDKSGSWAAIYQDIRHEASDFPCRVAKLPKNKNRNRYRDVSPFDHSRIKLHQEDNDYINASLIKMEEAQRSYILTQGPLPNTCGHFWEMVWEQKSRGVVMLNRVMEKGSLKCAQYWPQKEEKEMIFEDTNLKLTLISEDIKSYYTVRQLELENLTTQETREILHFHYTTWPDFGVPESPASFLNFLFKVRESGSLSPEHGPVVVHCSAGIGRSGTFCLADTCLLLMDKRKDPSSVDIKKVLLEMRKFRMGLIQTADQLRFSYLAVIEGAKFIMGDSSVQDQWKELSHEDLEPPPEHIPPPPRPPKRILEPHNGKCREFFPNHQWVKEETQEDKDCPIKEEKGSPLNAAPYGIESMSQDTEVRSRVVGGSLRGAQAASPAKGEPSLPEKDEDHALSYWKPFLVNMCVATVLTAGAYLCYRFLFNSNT
Experimental: (§1) A colorimetric assay to measure inhibition against PTP1B and TCPTP was performed in 96-well plates. […] Briefly, the tested compounds were solubilized in DMSO and serially diluted into concentrations for the inhibitory test.

[2] = target: T2, GST-TCPTP (Homo sapiens, UniProt P17706); assay: Colorimetric pNPP assay of inhibition against TCPTP
T2 sequence (P17706 1-415): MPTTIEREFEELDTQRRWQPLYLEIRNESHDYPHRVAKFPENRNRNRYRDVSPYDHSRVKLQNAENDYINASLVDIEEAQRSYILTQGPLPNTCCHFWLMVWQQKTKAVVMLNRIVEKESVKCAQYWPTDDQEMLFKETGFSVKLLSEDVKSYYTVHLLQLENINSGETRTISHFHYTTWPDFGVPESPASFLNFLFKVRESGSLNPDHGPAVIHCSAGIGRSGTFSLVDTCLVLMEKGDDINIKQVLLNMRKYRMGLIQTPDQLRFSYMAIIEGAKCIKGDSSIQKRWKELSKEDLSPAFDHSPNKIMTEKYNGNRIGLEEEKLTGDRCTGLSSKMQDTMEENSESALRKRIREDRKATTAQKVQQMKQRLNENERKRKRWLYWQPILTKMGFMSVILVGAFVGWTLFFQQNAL
Experimental: as §1

[3] = target: T3, PTP1B (Homo sapiens, UniProt P18031); assay: PTP1B enzyme kinetic study (Michaelis-Menten, Lineweaver-Burk plot); type: biochemical
T3 sequence (P18031 1-435): T1 sequence (P18031 1-435)

[4] = read-out: IC50 against PTP1B (Table 1)

COc1ccc(-c2cc(COc3ccc(/C=C/c4cccc(C(=O)O)c4)cc3)no2)cc1 [Compound 27, (E)-3-(4-((5-(4-Methoxyphenyl)isoxazol-3-yl)methoxy)styryl)benzoic acid]
IC50 ([1]; read-out: IC50 PTP1B (Table 2)): 2.23 ± 0.51 µM
TCPTP/PTP1B, the ratio of IC50 of TCPTP and PTP1B [1]: 3.6
IC50 [2]: 8.02 ± 0.99 µM

O=C(O)c1cccc(/C=C/c2ccc(OCc3cc(-c4ccc(F)c(F)c4)on3)cc2)c1 [Compound 30, (E)-3-(4-((5-(3,4-Difluorophenyl)isoxazol-3-yl)methoxy)styryl)benzoic acid]
IC50 ([1]; read-out: IC50 PTP1B (Table 2)): 1.22 ± 0.48 µM
TCPTP/PTP1B, the ratio of IC50 of TCPTP and PTP1B [1]: 4.9
IC50 [2]: 6.02 ± 1.13 µM

COc1ccccc1-c1cc(COc2ccc(/C=C/c3cccc(C(=O)O)c3)cc2)no1 [Compound 20, (E)-3-(4-((5-(2-Methoxyphenyl)isoxazol-3-yl)methoxy)styryl)benzoic acid]
IC50 ([1]; read-out: IC50 PTP1B (Table 2)): 7.66 ± 1.05 µM
IC50 [2]: > 40 µM

C[C@H](CCC(=O)O)[C@H]1CC[C@H]2[C@@H]3CC[C@@H]4C[C@H](O)CC[C@]4(C)[C@H]3CC[C@]12C [Lithocholic acid, lithocholic acid, reference compound]
IC50 ([1]; read-out: IC50 PTP1B (Table 2)): 12.5 ± 2.51 µM
TCPTP/PTP1B, the ratio of IC50 of TCPTP and PTP1B [1]: 1.7
IC50 [2]: 20.9 ± 3.66 µM

O=C(O)c1cccc(/C=C/c2ccc(OCc3cc(-c4ccccc4)on3)cc2)c1 [Compound 18, (E)-3-(4-((5-Phenylisoxazol-3-yl)methoxy)styryl)benzoic acid]
IC50 [1, 4]: 6.33 ± 1.02 µM
TCPTP/PTP1B, the ratio of IC50 of TCPTP and PTP1B [1]: 1.5
IC50 [2]: 9.58 ± 0.33 µM

O=C(O)c1cccc(/C=C/c2ccc(OCc3cc(-c4ccc(Cl)c(Cl)c4)on3)cc2)c1 [Compound 29, (E)-3-(4-((5-(3,4-Dichlorophenyl)isoxazol-3-yl)methoxy)styryl)benzoic acid]
IC50 ([1]; read-out: IC50 PTP1B (Table 2)): 0.91 ± 0.33 µM
TCPTP/PTP1B, the ratio of IC50 of TCPTP and PTP1B [1]: 4.2
Ki ([3]; 30 nM PTP1B, pNPP up to 80 mM, pH 6.5, read-out: inhibitory constant Ki): 780 nM
mode of inhibition of PTP1B ([3]; Vmax constant, Km increased with compound concentration): competitive PTP1B inhibitor; also recorded: competitive inhibition
IC50 [2]: 3.78 ± 0.22 µM

O=C(O)c1cccc(/C=C/c2ccc(OCc3cc(-c4ccc(F)cc4)on3)cc2)c1 [Compound 28, (E)-3-(4-((5-(4-Fluorophenyl)isoxazol-3-yl)methoxy)styryl)benzoic acid]
IC50 ([1]; read-out: IC50 PTP1B (Table 2)): 3.34 ± 0.81 µM
TCPTP/PTP1B, the ratio of IC50 of TCPTP and PTP1B [1]: 1.6
IC50 [2]: 5.19 ± 0.31 µM

O=C(O)c1cccc(/C=C/c2ccc(OCc3cc(-c4cccc([N+](=O)[O-])c4)on3)cc2)c1 [Compound 25, (E)-3-(4-((5-(3-Nitrophenyl)isoxazol-3-yl)methoxy)styryl)benzoic acid]
IC50 ([1]; read-out: IC50 PTP1B (Table 2)): 2.05 ± 0.54 µM
PTP1B inhibitory activity, fold higher than compound 18 ([1]; relative to compound 18): 3 fold
TCPTP/PTP1B, the ratio of IC50 of TCPTP and PTP1B [1]: 6.5
IC50 [2]: 13.2 ± 1.7 µM

O=C(O)c1cccc(/C=C/c2ccc(OCc3cc(-c4cccc(Br)c4)on3)cc2)c1 [Compound 23, (E)-3-(4-((5-(3-Bromophenyl)isoxazol-3-yl)methoxy)styryl)benzoic acid]
IC50 ([1]; read-out: IC50 PTP1B (Table 2)): 9.85 ± 2.04 µM
IC50 [2]: > 40 µM

COC(=O)c1cccc(/C=C/c2ccc(OCc3cc(-c4ccccc4)on3)cc2)c1 [Compound 18d]
IC50 [1, 4]: 23.7 ± 3.62 µM

O=C(O)c1cccc(/C=C/c2ccc(OCc3cc(-c4cccc(F)c4)on3)cc2)c1 [Compound 22, (E)-3-(4-((5-(3-Fluorophenyl)isoxazol-3-yl)methoxy)styryl)benzoic acid]
IC50 ([1]; read-out: IC50 PTP1B (Table 2)): > 20 µM
IC50 [2]: > 40 µM

Cc1cccc(-c2cc(COc3ccc(/C=C/c4cccc(C(=O)O)c4)cc3)no2)c1 [Compound 24, (E)-3-(4-((5-(m-Tolyl)isoxazol-3-yl)methoxy)styryl)benzoic acid]
IC50 ([1]; read-out: IC50 PTP1B (Table 2)): 3.68 ± 1.12 µM
TCPTP/PTP1B, the ratio of IC50 of TCPTP and PTP1B [1]: 5.1
IC50 [2]: 18.9 ± 1.18 µM

O=C(O)c1cccc(/C=C/c2ccc(OCc3cnoc3-c3ccccc3)cc2)c1 [Compound 16, (E)-3-(4-((5-Phenylisoxazol-4-yl)methoxy)styryl)benzoic acid]
IC50 [1, 4]: 16.2 ± 4.52 µM

O=C(O)c1cccc(/C=C/c2ccc(OCc3cc(-c4ccccc4Cl)on3)cc2)c1 [Compound 19, (E)-3-(4-((5-(2-Chlorophenyl)isoxazol-3-yl)methoxy)styryl)benzoic acid]
IC50 ([1]; read-out: IC50 PTP1B (Table 2)): 1.75 ± 0.82 µM
TCPTP/PTP1B, the ratio of IC50 of TCPTP and PTP1B [1]: 20.7
IC50 [2]: 36.2 ± 3.82 µM

Cc1onc(-c2ccccc2)c1COc1ccc(/C=C/c2cccc(C(=O)O)c2)cc1 [Compound 17, (E)-3-(4-((5-Methyl-3-phenylisoxazol-4-yl)methoxy)styryl)benzoic acid]
IC50 [1, 4]: 15.7 ± 2.15 µM

Cc1ccc(-c2cc(COc3ccc(/C=C/c4cccc(C(=O)O)c4)cc3)no2)cc1 [Compound 26, (E)-3-(4-((5-(p-Tolyl)isoxazol-3-yl)methoxy)styryl)benzoic acid]
IC50 ([1]; read-out: IC50 PTP1B (Table 2)): 3.56 ± 0.28 µM
TCPTP/PTP1B, the ratio of IC50 of TCPTP and PTP1B [1]: 2.2
IC50 [2]: 7.67 ± 0.35 µM

O=C(O)c1cccc(/C=C/c2ccc(OCc3conc3-c3ccccc3)cc2)c1 [Compound 15, (E)-3-(4-((3-Phenylisoxazol-4-yl)methoxy)styryl)benzoic Acid]
IC50 [1, 4]: 20.7 ± 3.83 µM

O=C(O)c1cccc(/C=C/c2ccc(OCc3cc(-c4cccc(Cl)c4)on3)cc2)c1 [Compound 21, (E)-3-(4-((5-(3-Chlorophenyl)isoxazol-3-yl)methoxy)styryl)benzoic acid]
IC50 ([1]; read-out: IC50 PTP1B (Table 2)): 5.37 ± 1.53 µM
TCPTP/PTP1B, the ratio of IC50 of TCPTP and PTP1B [1]: 1.4
IC50 [2]: 7.58 ± 1.32 µM
